{
  "source": "patent US9109041B2",
  "about": "“Analog compounds of analgesic peptides derived from the venom of crotalus durissus terrificus snakes, their uses, compositions, methods of preparation and purification” (priority 2004, dated 2015)",
  "system": "allodynia induced by the Walker 256 tumor",
  "assay": "allodynia induced by the Walker 256 tumor (cancer pain)",
  "assay_type": "in vivo, rat",
  "source_text": "The Walker 256 tumor cells were kindly provided by Prof. Dr. Rui Curi, of the Physiology and Biophysics Department of the Biomedical Science Institute of the University of São Paulo. The tumor-bearing animal was sacrificed and the tumoral tissue was removed, placed on a Petri dish containing 0.9% saline. Then, the tumor was cut in smaller parts, and transferred into a beaker containing saline. The material was triturated with a fine-cut, until the tumor is totally fragmented. Then, this material was filtered in gauze and the liquid collected in a beaker. All procedures were performed on ice. The material of the beaker was transferred to 50 ml plastic tubes and centrifuged at 4° C., for 10 minutes, at 1200 rpm. After centrifugation, the supernatant was rejected and the precipitate resuspended in saline 0.9%. For cell counts, the suspension of cells was diluted (1:100) in saline. An aliquot (200 μl) was removed and placed in a test tube containing 200 μl of 1% Trypan blue. The cell number was determined in optical microscope using Neubauer's chamber. The cellular viability was determined considering viable the light-refracting cells.\nAfter determining the number of cells, 1 ml of the suspension, containing 1×10^7 cells, was injected by intraperitoneal route, on the right side of the rats to obtain liquid tumor (ascites).\nFive days after injection, the rats with ascites were sacrificed and the ascetic fluid collected from the peritoneal cavity and placed in a test tube containing EDTA. The liquid was diluted 100 times with phosphate-buffered saline (PBS), pH 7.4. The cell count was done after dilution with Trypan blue, as described above. Tumor cell count was ascertained to 1×10^6 cells in 100 μl, by dilution with PBS. This number of cells was determined in preliminary tests for induction of cancer pain in rats. In this final cell number adjustment, the volume of antibiotic (Benzetacil®) added to the suspension (150,000 units of antibiotic/10 ml of suspension), was taken into consideration. The antibiotic was used in order to avoid microbial contamination. The cells were injected by intraplantar route into one of the rat hind paws. Control animals were injected with PBS into the contralateral paw, in the same experimental conditions.\nHyperalgesia, allodynia and spontaneous pain were determined before (BM-basal measurement) and 5 days after tumor cell injection, before (IM-initial measurement) and 2 hours after (FM-Final measurement) peptide administration.\nThe results were analyzed comparing the mean values of the basal and initial measurements, or of the initial and final measurements or, when determined, by comparing the mean values obtained in the different experimental groups (Tables 17, 18, 19).\nFor this purpose, the animals were treated with CTOP, a specific μ receptor antagonist (20 μg/paw), nor-BNI, a specific κ receptor antagonist (50 μg/paw) or with ICI 174,864, a specific δ receptor antagonist (10 μg/paw). The antagonists were injected by intraplantar route. The peptide was administered in the dose of 6 μg/kg, orally, immediately before the injection of the opioid antagonists. The results were analyzed comparing the mean values of the basal and initial measurements, or of the initial and final measurements or, when determined, by comparing the mean values obtained in the different experimental groups ( Table 20).",
  "key": {"[1]": {"conditions": "saline + antagonist alone i.pl. (ICI 10, nor-BNI 50, CTOP 20 μg/paw), 5th day, 2 hours after treatment"}, "[2]": {"conditions": "saline + antagonist alone i.pl. (ICI 10, nor-BNI 50, CTOP 20 μg/paw), 5th day, before treatment"}, "[3]": {"conditions": "saline + antagonist alone i.pl. (ICI 10, nor-BNI 50, CTOP 20 μg/paw), before injection of the tumor"}},
  "data": [
    {"molecule": "Oc1ccc2c3c1O[C@H]1c4[nH]c5c(c4C[C@@]4(O)[C@@H](C2)N(CC2CC2)CC[C@]314)C[C@@]1(O)[C@H]2Cc3ccc(O)c4c3[C@@]1(CCN2CC1CC1)[C@H]5O4", "note": "[nor-BNI, nor-Binalthorphimine, reference compound]", "values": [
      {"measurement": "paw withdrawal threshold (allodynia), FM", "setting": "[1]", "result": "4.41 ± 0.00 log 10 (mg × 10)"},
      {"measurement": "paw withdrawal threshold (allodynia), IM", "setting": "[2]", "result": "4.41 ± 0.00 log 10 (mg × 10)"},
      {"measurement": "paw withdrawal threshold (allodynia), BM", "setting": "[3]", "result": "4.97 ± 0.00 log 10 (mg × 10)"}
    ]},
    {"molecule": "CTOP [reference compound]", "values": [
      {"measurement": "paw withdrawal threshold (allodynia), FM", "setting": "[1]", "result": "4.41 ± 0.00 log 10 (mg × 10)"},
      {"measurement": "paw withdrawal threshold (allodynia), IM", "setting": "[2]", "result": "4.41 ± 0.00 log 10 (mg × 10)"},
      {"measurement": "paw withdrawal threshold (allodynia), BM", "setting": "[3]", "result": "4.97 ± 0.00 log 10 (mg × 10)"}
    ]},
    {"molecule": "Xaa-Phe-Ser-Pro-Glu-Asn-Cys-Gln-Gly-Glu-Ser-Gln-Pro-Cys [SEQ ID NO: 2]", "values": [
      {"measurement": "paw withdrawal threshold (allodynia), FM", "setting": "6 μg/kg p.o. + CTOP 20 μg/paw i.pl., 5th day, 2 hours after peptide", "result": "4.98 ± 0.03 log 10 (mg × 10)"},
      {"measurement": "paw withdrawal threshold (allodynia), IM", "setting": "6 μg/kg p.o. + CTOP 20 μg/paw i.pl., 5th day, before peptide", "result": "4.41 ± 0.00 log 10 (mg × 10)"},
      {"measurement": "paw withdrawal threshold (allodynia), BM", "setting": "6 μg/kg p.o. + CTOP 20 μg/paw i.pl., before injection of the tumor", "result": "5.03 ± 0.02 log 10 (mg × 10)"},
      {"measurement": "paw withdrawal threshold (allodynia), FM", "setting": "6 μg/kg p.o. + ICI 174,864 10 μg/paw i.pl., 5th day, 2 hours after peptide", "result": "4.56 ± 0.03 log 10 (mg × 10)"},
      {"measurement": "paw withdrawal threshold (allodynia), IM", "setting": "6 μg/kg p.o. + ICI 174,864 10 μg/paw i.pl., 5th day, before peptide", "result": "4.41 ± 0.00 log 10 (mg × 10)"},
      {"measurement": "paw withdrawal threshold (allodynia), BM", "setting": "6 μg/kg p.o. + ICI 174,864 10 μg/paw i.pl., before injection of the tumor", "result": "4.99 ± 0.02 log 10 (mg × 10)"},
      {"measurement": "paw withdrawal threshold (allodynia), FM", "setting": "6 μg/kg p.o. + nor-BNI 50 μg/paw i.pl., 5th day, 2 hours after peptide", "result": "4.41 ± 0.00 log 10 (mg × 10)"},
      {"measurement": "paw withdrawal threshold (allodynia), IM", "setting": "6 μg/kg p.o. + nor-BNI 50 μg/paw i.pl., 5th day, before peptide", "result": "4.41 ± 0.00 log 10 (mg × 10)"},
      {"measurement": "paw withdrawal threshold (allodynia), BM", "setting": "6 μg/kg p.o. + nor-BNI 50 μg/paw i.pl., before injection of the tumor", "result": "4.97 ± 0.00 log 10 (mg × 10)"},
      {"measurement": "paw withdrawal threshold (allodynia), FM", "setting": "6 μg/kg p.o., 5th day after tumor implantation, 2 hours after peptide (Table 18)", "result": "4.97 ± 0.00 log 10 (mg × 10)"},
      {"measurement": "paw withdrawal threshold (allodynia), IM", "setting": "6 μg/kg p.o., 5th day after tumor implantation, before peptide (Table 18)", "result": "4.41 ± 0.00 log 10 (mg × 10)"},
      {"measurement": "paw withdrawal threshold (allodynia), FM", "setting": "6 μg/kg p.o., 5th day, 2 hours after peptide (Table 21)", "result": "4.97 ± 0.00 log 10 (mg × 10)"},
      {"measurement": "paw withdrawal threshold (allodynia), IM", "setting": "6 μg/kg p.o., 5th day, before peptide (Table 21)", "result": "4.41 ± 0.00 log 10 (mg × 10)"},
      {"measurement": "paw withdrawal threshold (allodynia), BM", "setting": "6 μg/kg p.o., before injection of the tumor (Table 18)", "result": "4.97 ± 0.00 log 10 (mg × 10)"},
      {"measurement": "paw withdrawal threshold (allodynia), BM", "setting": "6 μg/kg p.o., before injection of the tumor (Table 21)", "result": "4.97 ± 0.00 log 10 (mg × 10)"},
      {"measurement": "effect of the mu opioid receptor antagonist on the anti-allodynic effect of the peptide", "setting": "peptide 6 μg/kg p.o., CTOP 20 μg/paw i.pl.", "result": "did not alter"},
      {"measurement": "effect of the delta opioid receptor antagonist on the anti-allodynic effect of the peptide", "setting": "peptide 6 μg/kg p.o., ICI 174,864 10 μg/paw i.pl.", "result": "partially inhibited"},
      {"measurement": "effect of the kappa opioid receptor antagonist on the anti-allodynic effect of the peptide", "setting": "peptide 6 μg/kg p.o., nor-BNI 50 μg/paw i.pl.", "result": "blocked"}
    ]}
  ]
}
